PMC3037030 (Biochimica et biophysica acta, 2010)
Like-named read-outs stand apart in the source and are kept apart here.

Columns and labels:
Acsl4 [1] = molecular target: T1, Acsl4 (Rattus norvegicus, UniProt O35547); test: radiometric acyl-CoA synthetase assay; format: biochemical
Acsl4 [2] = molecular target: T1, Acsl4; test: radiometric acyl-CoA synthetase assay; format: biochemical; conditions: read-out: Substrate / AA
Acsl4 [3] = molecular target: T1, Acsl4; format: biochemical
Acsl4 [4] = molecular target: T1, Acsl4; test: radiometric acyl-CoA synthetase assay, […] inhibition at […]; format: cell-based; conditions: read-out: % inhibition at 10 μM
Acsl3 = Acsl3 (Rattus norvegicus, UniProt Q63151); test: as above; format: cell-based; conditions: read-out: % inhibition at 10 μM
Chain of Acsl3 (Q63151 whole entry): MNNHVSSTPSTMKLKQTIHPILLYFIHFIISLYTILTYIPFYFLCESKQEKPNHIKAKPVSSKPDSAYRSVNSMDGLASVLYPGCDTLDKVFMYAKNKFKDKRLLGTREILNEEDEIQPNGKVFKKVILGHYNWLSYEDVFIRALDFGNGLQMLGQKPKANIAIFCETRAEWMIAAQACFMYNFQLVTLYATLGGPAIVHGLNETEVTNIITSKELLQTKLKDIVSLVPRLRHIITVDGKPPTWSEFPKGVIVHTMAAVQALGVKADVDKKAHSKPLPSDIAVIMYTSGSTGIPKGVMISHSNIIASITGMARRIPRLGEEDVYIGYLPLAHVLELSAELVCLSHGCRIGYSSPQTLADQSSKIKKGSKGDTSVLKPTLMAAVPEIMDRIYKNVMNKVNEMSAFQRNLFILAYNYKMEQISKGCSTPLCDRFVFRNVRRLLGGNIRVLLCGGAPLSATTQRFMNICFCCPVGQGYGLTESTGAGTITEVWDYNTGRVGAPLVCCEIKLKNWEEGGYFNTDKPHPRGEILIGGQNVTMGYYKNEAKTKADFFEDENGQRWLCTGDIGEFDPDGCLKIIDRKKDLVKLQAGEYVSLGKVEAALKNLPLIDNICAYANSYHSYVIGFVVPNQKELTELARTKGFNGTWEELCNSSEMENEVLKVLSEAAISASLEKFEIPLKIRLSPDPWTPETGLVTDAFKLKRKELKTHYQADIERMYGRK

T1 sequence (O35547 whole entry): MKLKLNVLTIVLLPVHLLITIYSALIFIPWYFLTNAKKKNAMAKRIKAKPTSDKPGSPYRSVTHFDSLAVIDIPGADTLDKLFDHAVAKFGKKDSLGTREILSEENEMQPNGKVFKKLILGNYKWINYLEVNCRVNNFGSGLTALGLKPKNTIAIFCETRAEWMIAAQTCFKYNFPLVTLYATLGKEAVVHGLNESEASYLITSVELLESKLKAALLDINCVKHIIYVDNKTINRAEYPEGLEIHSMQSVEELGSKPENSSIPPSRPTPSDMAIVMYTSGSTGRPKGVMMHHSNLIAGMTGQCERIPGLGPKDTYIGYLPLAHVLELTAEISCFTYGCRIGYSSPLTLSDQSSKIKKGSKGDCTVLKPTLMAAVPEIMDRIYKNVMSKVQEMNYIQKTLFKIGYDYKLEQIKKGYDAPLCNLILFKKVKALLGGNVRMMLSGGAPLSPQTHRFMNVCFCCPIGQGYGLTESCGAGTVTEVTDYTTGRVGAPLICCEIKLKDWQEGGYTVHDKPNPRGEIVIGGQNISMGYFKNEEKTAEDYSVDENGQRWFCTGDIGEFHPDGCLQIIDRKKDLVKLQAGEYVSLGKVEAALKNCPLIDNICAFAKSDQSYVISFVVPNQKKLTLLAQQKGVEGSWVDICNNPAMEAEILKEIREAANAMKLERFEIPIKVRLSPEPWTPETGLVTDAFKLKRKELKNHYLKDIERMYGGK

`CC/C=C\C/C=C\C/C=C\C/C=C\C/C=C\C/C=C\CCC(=O)O` [DHA, docosahexaenoic acid] was tested. Which Km (Acsl4 [1]; read-out: Substrate / DHA) did it give?
The Km was 26.6 ± 3.95 µM.

`CCCCC/C=C\C/C=C\C/C=C\C/C=C\CCCC(=O)O` [AA, arachidonic acid] was tested. Which Km (Acsl4 [2]) did it give?
Its Km is 4.98 ± 1.41 µM.

For `CCCC(CCC)C(=O)O` [VPA, valproate], which Ki (Acsl4 [3]) is on record?
Its Ki is 24.9 ± 2.61 mM.

`CCCCCCCCCCCCCCCC(=O)O` [palmitic acid] was tested. Which Km (Acsl4 [1]; read-out: Substrate / Palmitic Acid) did it give?
Its Km is 16.7 ± 6.25 µM.

How did the inhibition at 10 µM (Acsl4 [4]) turn out when `CCC/C=C/C/C=C/C=C/C=N/NN=O` [triacsin C] was run?
The inhibition at 10 µM was 85%.

And the inhibition at 10 µM (Acsl3)?
Its inhibition at 10 µM is 90%.
